In patent publication US20130203649A1, “INHIBITORS OF TLR SIGNALING BY TARGETING TIR DOMAIN INTERFACES” (UNIVERSITY OF MARYLAND, BALTIMORE, priority 2012, published 2013):
Residues, ends and D or L forms follow the SMILES beside them. No end group written: not given here.

Columns and labels:
TLR2 = biological target: T1, TLR2 (Mus musculus, UniProt Q9QUN7); experiment: Inhibition of TLR2 signaling in thioglycollate-elicited mouse macrophages (effective concentration, TLR2 agonists P3C/P2C); format: cell-based; settings: mouse macrophages, P3C/P2C
T1 construct: Primary peritoneal macrophages were obtained by peritoneal lavage; endogenous in cells; host or cells: thioglycollate-elicited mouse peritoneal macrophages
Protocol: C57BL/6J mice were obtained from The Jackson Laboratory (Bar Harbor, Me.). Primary peritoneal macrophages were obtained by peritoneal lavage 4 days after intraperitoneal injection (3 ml) of sterile 3% thioglycolate broth. Washed cells were resuspended in RPMI 1640 which contained 2% FBS, 1% penicillin:streptomycin and 2 mM L-glutamine. After plating, cells were incubated overnight at 37° C. and then washed with PBS to remove non-adherent cells. Cells were exposed to peptides 30 min before stimulation with a TLR agonist.
(§1) Protein-free Escherichia coli K235 LPS was used at final concentration of 10 ng/ml to stimulate cells. S-[2,3-bis(palmitoyloxy)-(2-RS)-propyl]-N-palmitoyl-(R)-Cys-Ser-Lys4-OH (P3C) and S-[2,3-bis(palmitoyloxy)-(2-RS)-propyl]-[R]-Cys-Ser-Lys4-OH (P2C) were purchased from EMC microcollections GmbH (Tubingen, Germany) and used for cell stimulation at 500 and 50 ng/ml, respectively. Phospho-ERK1/2 and phospho-JNK1/2 rabbit Abs were obtained from Cell Signaling Technology, Inc. β-actin rabbit Ab were from SantaCruz Biotechnology, Inc.
(§2) Because of the role TRAP plays in TLR2 signaling, TIRAP TIR-derived decoy peptide effects on TLR2-induced cytokine mRNA expression were examined. Thioglycollate-elicited mouse macrophages were stimulated either by P2C, an agonist that induces signaling through TLR2/TLR6 heterodimerization, or P3C, a TLR2/TLR1 agonist, and effects of TIRAP TR-derived decoy peptides on induction of cytokine mRNA were examined. […] To confirm the inhibitory effect of TR3 and TR6 on P3C-induced signaling, IL-6 and TNF-α concentration was measured in macrophage supernatants collected 5 h after stimulation of cells with P3C. […] Concordantly, both TR3 and TR6 diminished the P3C-induced ERK phosphorylation (FIG. 3D).
(§3) C57BL/6J mice were obtained from The Jackson Laboratory (BarHarbor, Me.). Harvesting, culturing, and stimulation of peritoneal macrophages were described in previous publications (1, 18, 19). Escherichia coli K235 LPS (34) was used at the final concentration of 100 ng/ml. The 2,3-bis(palmitoyloxy)-(2-RS)-propyl-N-palmitoyl-(R)-Cys-Ser-Lys4-OH (P3C) and S[2,3-bis(palmitoyloxy)-(2-RS)-propyl]-[R]-Cys-Ser-Lys4-OH (P2C) (EMC Microcollections, Tubingen, Germany) were used at 500 and 50 ng/ml, respectively. Oligonucleotide (ODN) 1668 and low m.w. polyinosinic-polycytidylic acid [poly(I:C)] in complex with LyoVec were obtained from InvivoGen; these agonists were used at 2.5 μM and 400 ng/ml, respectively.

MAPK (ERK, JNK, p38) = experiment: MAPK activation by peptide alone, macrophages without TLR agonist; format: cell-based, mouse; settings: 20 μM peptide, 1 hour incubation
Protocol: Neither TIRAP peptide activated ERK in cells incubated without a TLR agonist (not shown). […] The mechanism of this differential MAPK activation by select peptides, although interesting, is not understood at this time. Peptides TR9 and TR11 inhibited both ERK and JNK MAPKs (FIG. 1D). Peptide-induced inhibition of ERK persisted over a long period of time.
We next examined whether TRAM peptides inhibit the TLR4-mediated p38, ERK, and JNK MAPK activation. Murine macrophages pretreated with peptides for 30 min were challenged with LPS. Cell lysates were collected 30 min post-stimulation and analyzed for MAPK phosphorylation by Western analysis. Consistent with peptide effects on steady-state mRNA, both TM4 and TM6 inhibited activation of all three MAPKs (FIG. 5C). The inhibition of MAPKs by TM4 or TM6 was long lasting; it persisted for at least 1 h after LPS stimulation (data not shown). To characterize further the effects of TRAM peptides on MAPKs, murine macrophages were treated with TRAM peptides, but not challenged by LPS.

TLR2/TLR1 heterodimer [1] = biological target: T2, TLR2/TLR1 heterodimer (Mus musculus, UniProt Q9QUN7); experiment: P3C-induced IL-6 and TNF-α secretion by macrophages (ELISA); format: cell-based; settings: supernatants 5 h after P3C 500 ng/ml
T2 construct: endogenous in cells; host or cells: thioglycollate-elicited mouse peritoneal macrophages
Protocol: FIG. 3. Effect of TIRAP decoy peptides on TLR2 signaling. Thioglycollate-elicited macrophages were incubated in the presence of 20 (black columns) or 40 μM (open columns) of a decoy peptide for 30 min prior to stimulation with P3C (500 ng/ml) (A and C) or P2C (50 ng/ml) (B). Cytokine mRNA expression was measured 1 h after TLR2 stimulation and is normalized to the expression of HPRT gene. C. IL-6 and TNF-α were measured by ELISA in macrophage supernatants collected 5 h after P3C (500 ng/ml) stimulation. D. Peptides TR3 and TR6 inhibit ERK activation induced by TLR2 agonist, P3C. ERK phosphorylation was measured by Western analysis in primary macrophage stimulated by P3C for 30 min.
Cytokine secretion was measured in supernatant samples collected at 6 or 24 h time points and stored at −80° C. Samples were analyzed by a multiplex assay at the University of Maryland Baltimore Cytokine Core Facility using a Luminex 100 reader and Softmax Pro software, or by ELISA kits for mouse IL-6 or TNF-α from BioLegend (San Diego, Calif.) and LT-4000 microplate reader.
Because of the role TRAP plays in TLR2 signaling, TIRAP TIR-derived decoy peptide effects on TLR2-induced cytokine mRNA expression were examined. […] To confirm the inhibitory effect of TR3 and TR6 on P3C-induced signaling, IL-6 and TNF-α concentration was measured in macrophage supernatants collected 5 h after stimulation of cells with P3C. […]

TLR2/TLR1 heterodimer [2] = biological target: T2, TLR2/TLR1 heterodimer; experiment: P3C-induced cytokine mRNA expression in mouse macrophages; format: cell-based; settings: P3C 500 ng/ml, 1 h
From the text: Total cellular RNA was isolated using Tripure from Roche (San Francisco, Calif.) following manufacture's protocol. RNA was then reverse transcribed using AMV Reverse Transcriptase from Promega (Madison, Wis.) with poly-T priming as per manufacturer's directions. cDNA was then quantified by real-time PCR using Applied Biosystems Fast SYBR Green PCR Master Mix and an ABI Prism 7500HT cycler. Primers used for detection: hypoxanthine phosphoribosyltransferase (HPRT) (forward: […] (SEQ ID NO:51), reverse: […] (SEQ ID NO:52)), TNFα (forward: […] (SEQ ID NO:53), reverse: […] (SEQ ID NO:54)), IL-1β (forward: […] (SEQ ID NO:55), reverse: […] (SEQ ID NO:56)), IFNβ (forward: […] (SEQ ID NO:57), reverse: CTCGGACCACCATCCAGG (SEQ ID NO:58)) and RANTES (forward: […] (SEQ ID NO:59), reverse: […] (SEQ ID NO:60)). The primers were designed using Primer Express 2.0 (Applied Biosystems). Using HPRT as reference, the ΔCt method was used to calculate relative gene expression. One-way ANOVA was preformed, as well as Dunnett's multiple comparison post hoc test with a p≦0.01 selected as the level of significance.
as §1, §2, §3

T2 sequence (Q9QUN7 25-784, one chain of several): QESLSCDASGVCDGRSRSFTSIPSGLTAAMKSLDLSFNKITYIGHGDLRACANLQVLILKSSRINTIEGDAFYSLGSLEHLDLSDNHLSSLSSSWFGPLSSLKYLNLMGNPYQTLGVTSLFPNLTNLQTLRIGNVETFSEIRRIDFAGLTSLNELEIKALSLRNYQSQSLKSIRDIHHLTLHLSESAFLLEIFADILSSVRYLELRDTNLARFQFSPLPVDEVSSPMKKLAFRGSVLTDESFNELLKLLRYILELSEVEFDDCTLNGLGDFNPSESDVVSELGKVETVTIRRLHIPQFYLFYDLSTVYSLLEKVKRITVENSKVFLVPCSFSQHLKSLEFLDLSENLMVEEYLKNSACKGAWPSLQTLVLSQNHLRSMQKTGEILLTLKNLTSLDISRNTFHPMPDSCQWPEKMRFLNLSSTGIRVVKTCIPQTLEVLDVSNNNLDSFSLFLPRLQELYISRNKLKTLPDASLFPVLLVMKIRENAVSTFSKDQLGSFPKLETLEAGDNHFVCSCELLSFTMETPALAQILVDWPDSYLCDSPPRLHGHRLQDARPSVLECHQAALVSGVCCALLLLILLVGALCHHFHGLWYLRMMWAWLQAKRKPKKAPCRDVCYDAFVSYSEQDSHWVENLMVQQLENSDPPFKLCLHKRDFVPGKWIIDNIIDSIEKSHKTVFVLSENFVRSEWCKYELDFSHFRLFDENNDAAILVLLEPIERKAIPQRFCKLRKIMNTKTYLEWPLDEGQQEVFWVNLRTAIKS
T1 sequence (Q9QUN7 25-784): as the sequence (Q9QUN7 25-784, one chain of several) above

Row | Compound | Inhibition of TLR2 signaling (overall) (TLR2) | JNK activation in macrophages without TLR agonist (MAPK (ERK, JNK, p38)) | P3C-induced IL-6 and TNF-α secretion (TLR2/TLR1 heterodimer [1]) | P3C-induced TNFα and IL-1β mRNA (TLR2/TLR1 heterodimer [2]; 20 μM peptide) | P3C-induced TNFα and IL-1β mRNA (TLR2/TLR1 heterodimer [2]; 40 μM peptide)
1 | CC[C@H](C)[C@H](NC(=O)[C@H](CCCCN)NC(=O)[C@@H](NC(=O)[C@H](CCC(N)=O)NC(=O)[C@@H](N)CCCNC(=N)N)[C@@H](C)CC)C(=O)N[C@@H](Cc1c[nH]c2ccccc12)C(=O)N[C@@H](Cc1ccccc1)C(=O)N[C@@H](CCC(N)=O)C(=O)N[C@@H](CC(N)=O)C(=O)N[C@@H](CCCNC(=N)N)C(=O)N[C@@H](CCCNC(=N)N)C(=O)N[C@@H](CCSC)C(=O)N[C@@H](CCCCN)C(=O)N[C@@H](Cc1c[nH]c2ccccc12)C(=O)N[C@@H](CCCCN)C(=O)N[C@@H](CCCCN)C(=O)N[C@@H](CCC(=O)O)C(=O)N[C@@H](CC(C)C)C(=O)N[C@@H](CS)C(=O)N[C@@H](CCC(N)=O)C(=O)N[C@@H](C)C(=O)N[C@@H](CC(C)C)C(=O)N[C@@H](CO)C(=O)N[C@@H](CCCNC(=N)N)C(=O)N[C@@H](CO)C(=O)N[C@@H](Cc1c[nH]cn1)C(=O)N[C@@H](CS)C(=O)N[C@@H](CCCNC(=N)N)C(=O)O [TR5] (H-RQIKIWFQNRRMKWKKELCQALSRSHCR-OH) | does not | – | – | – | –
2 | RQIKIWFQNRRMKWKKEGSQASLRCF [TR3] | inhibits | moderately activated | profoundly inhibited | inhibited | profoundly inhibited
3 | RQIKIWFQNRRMKWKKPGFLRDPWCKYQML [TR6] | – | moderately activated | profoundly inhibited | inhibited | profoundly inhibited
